Measurements taken from patent publication US9650389B2, “8-oxoprotoberberine derivative or pharmaceutically acceptable salt thereof, preparation method therefor and pharmaceutical composition for preventing or treating diseases associated with activity of NFAT5, containing same as active ingredient” (Korea Research Institute of Chemical Technology, priority 2013, dated 2017).

How the values were obtained:
[1] = Cytotoxicity test (WST-8), VERO; type: cell-based; settings: African green monkey, VERO kidney cells
Procedure: (§1) To investigate the cytotoxicity of the derivative of the present invention, 5 kinds of cell lines (VERO: African green monkey kidney cell line, HFL-1: human embryonic lung cell line, L929: NCTC clone 929, mouse fibroblast cell line, NIH 3T3: mouse embryonic fibroblast cell line, and CHO-K1: Chinese hamster ovary cell line) were distributed in a 96-well plate at the density of 1×10^4 cells/well, which were treated with the compound of the present invention for 24 hours. The water-soluble tetrazolium salt WST-8 was added thereto. The orange colored formazan dye degraded by dehydrogenase in the live cells was read, followed by nonlinear regression to determine 50% growth inhibition concentration.

[2] = Cytotoxicity test (WST-8), CHO-K1; type: cell-based; settings: Chinese hamster, CHO-K1 ovary cells; CHO-K1, 24 hours
Procedure: as §1

[3] = molecular target: T1, NFAT5 (Mus musculus, UniProt Q9WV30); assay: NFAT5 reporter screening (GFP, HCS) in LPS-treated Raw264.7 cells; type: cell-based; settings: for Inhibition rate of NFAT5 transcription (%): Raw264.7 reporter, LPS 1 μg/ml, 48 hours
T1 construct: endogenous in cells; host or cells: RAW264.7
T1 sequence (Q9WV30 whole entry): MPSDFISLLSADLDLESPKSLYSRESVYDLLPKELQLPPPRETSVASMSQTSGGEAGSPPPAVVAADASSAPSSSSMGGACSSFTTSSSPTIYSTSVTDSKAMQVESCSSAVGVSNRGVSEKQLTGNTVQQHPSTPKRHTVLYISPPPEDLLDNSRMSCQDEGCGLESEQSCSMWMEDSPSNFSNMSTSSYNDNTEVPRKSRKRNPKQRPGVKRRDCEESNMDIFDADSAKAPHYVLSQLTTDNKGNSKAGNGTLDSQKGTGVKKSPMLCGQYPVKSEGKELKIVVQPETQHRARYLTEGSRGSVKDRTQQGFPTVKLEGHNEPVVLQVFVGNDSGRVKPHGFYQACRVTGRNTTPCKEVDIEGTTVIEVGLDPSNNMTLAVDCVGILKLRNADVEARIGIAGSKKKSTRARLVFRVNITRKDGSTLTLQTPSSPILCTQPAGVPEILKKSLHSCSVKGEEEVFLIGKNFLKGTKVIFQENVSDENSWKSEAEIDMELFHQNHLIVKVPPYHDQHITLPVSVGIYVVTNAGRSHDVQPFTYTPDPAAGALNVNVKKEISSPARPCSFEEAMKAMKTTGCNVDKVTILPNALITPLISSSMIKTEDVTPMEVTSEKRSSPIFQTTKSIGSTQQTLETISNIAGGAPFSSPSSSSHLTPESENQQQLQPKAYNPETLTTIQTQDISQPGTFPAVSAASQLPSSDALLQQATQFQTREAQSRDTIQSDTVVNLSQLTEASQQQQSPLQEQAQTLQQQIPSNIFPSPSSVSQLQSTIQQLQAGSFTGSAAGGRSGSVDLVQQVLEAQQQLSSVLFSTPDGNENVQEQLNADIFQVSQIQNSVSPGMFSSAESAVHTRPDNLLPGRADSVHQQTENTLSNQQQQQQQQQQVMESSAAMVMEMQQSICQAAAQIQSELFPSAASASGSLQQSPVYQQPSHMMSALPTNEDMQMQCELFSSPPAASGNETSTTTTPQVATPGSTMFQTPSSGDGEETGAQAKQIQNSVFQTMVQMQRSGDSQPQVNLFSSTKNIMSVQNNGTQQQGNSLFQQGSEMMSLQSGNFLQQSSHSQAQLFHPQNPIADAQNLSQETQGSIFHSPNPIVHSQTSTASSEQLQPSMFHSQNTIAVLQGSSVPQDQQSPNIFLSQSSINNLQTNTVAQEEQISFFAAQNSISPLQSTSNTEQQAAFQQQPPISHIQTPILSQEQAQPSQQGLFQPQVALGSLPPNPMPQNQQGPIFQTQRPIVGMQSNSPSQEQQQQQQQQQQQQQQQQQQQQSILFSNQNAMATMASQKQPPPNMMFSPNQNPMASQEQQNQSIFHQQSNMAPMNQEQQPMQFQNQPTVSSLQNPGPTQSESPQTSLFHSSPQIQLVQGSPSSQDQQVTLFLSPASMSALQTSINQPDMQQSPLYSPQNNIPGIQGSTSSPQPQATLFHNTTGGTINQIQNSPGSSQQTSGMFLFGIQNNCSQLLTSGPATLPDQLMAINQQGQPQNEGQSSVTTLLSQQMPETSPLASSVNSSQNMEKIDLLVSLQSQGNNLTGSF
Procedure: To investigate whether or not the derivative of the present invention could inhibit the transcriptional activity of NFAT5, NFAT5 reporter screening was performed. A plasmid vector was constructed by eliminating CMV promoter sequence from the backbone and inserting NFAT5 binding site sequence ([…]) instead. Raw264.7 cells transfected with the vector were cultured in 10% FBS-PRMI (supplemented with 500 μg/ml G418). The cells were distributed in a 96-well plate at the density of 3×10^3 cells/well, followed by further culture for one more day. The cells were treated with LPS at the concentration of 1 μg/ml for 48 hours. Then, the cells were fixed and the expression level of GFP was measured by HCS fluorescence image (Thermo, ArrayScan^VTI).

[4] = Metabolic stability in human liver microsomes; type: in vitro ADME; settings: human liver microsome fractions, 30 minutes
Procedure: (§2) Particularly, each compound was added to rat and human liver microsome fractions, followed by culture for 30 minutes. Each compound was administered via intravenous injection (iv) and oral-administration (po) to rat at the concentration of 5 mg/kg, followed by making pharmacokinetic profiles.

[5] = Cytotoxicity test (WST-8), NIH 3T3; type: cell-based; settings: mouse, NIH 3T3 embryonic fibroblast cells; NIN3T3, 24 hours
Procedure: as §1

[6] = Metabolic stability in rat liver microsomes; type: in vitro ADME; settings: rat liver microsome fractions, 30 minutes
Procedure: as §2

[7] = system: NFATc; assay: NFAT (NFATc) transcriptional activity, THP1-XBlue-MD2-CD14 cells, SEAP; type: cell-based; settings: LPS 1 μg/ml, 24 hours, FIG. 2B
Procedure: To evaluate the transcriptional activity of NFAT, THP1-XBlue-MD2-CD14 cells were cultured in 10% FBS-RPMI (supplemented with 200 μg/ml of Zeocin and 250 μg/ml of G418). First, the cells were distributed in a 96-well plate at the density of 2×10^4 cells/well, followed by culture. 1 μg/ml of LPS and the compound of the invention were added thereto, followed by culture for 24 hours. 20 μl of the supernatant was added with 180 μl of secreted embryonic alkaline phosphatase (SEAP) detection medium, followed by culture for 2 hours. Then, OD655 was measured.

[8] = Cytotoxicity test (WST-8), HFL-1; type: cell-based; settings: human, HFL-1 embryonic lung cells; HFL-1, 24 hours
Procedure: as §1

[9] = Cytotoxicity test (WST-8), L929; type: cell-based; settings: mouse, L929 fibroblast cells (NCTC clone 929); L929, 24 hours
Procedure: as §1

[10] = system: iNOS; assay: Inhibition of LPS-induced iNOS induction in Raw264.7 cells (Griess reagent); type: cell-based; settings: Mus musculus, Raw264.7, LPS 100 ng/ml, 24 hours, read-out: Inhibition rate of iNOS induction (%)
Procedure: To investigate whether or not the derivative of the present invention could inhibit iNOS inducement, Raw264.7 cells (mouse macrophages) were distributed in a 384-well plate at the density of 3×10^4 cells/well. The cells were treated with LPS at the concentration of 100 ng/ml, followed by culture at 37° C. for 24 hours. The concentration of […] increased in the medium was measured by using Griess reagent. The inhibition rate was calculated by mathematical formula based on the detected signals. The results are shown in Table 2. % inhibition=(mean value of sample−mean value of negative control)/(mean value of positive control −mean value of negative control)×100 [Mathematical Formula 1]

| SMILES | GI50 at 24 h [1] | GI50 at 24 h [2] | Inhibition rate of NFAT5 transcription (%) ([3]; 1 μM) | Inhibition rate of NFAT5 transcription (%) ([3]; 10 μM) | inhibiting NFAT5 activity (in words) ([3]; Table 3 and FIG. 1) | remaining compound, Human (%) [4] | GI50 at 24 h [5] | remaining compound, Rat (%) [6] | inhibition of NFAT promoter / transcriptional activity (in words) [7] | GI50 at 24 h [8] | GI50 at 24 h [9] | inhibition at 1 µM ([10]; 1 μM) | inhibition at 10 µM ([10]; 10 μM) |
| --- | --- | --- | --- | --- | --- | --- | --- | --- | --- | --- | --- | --- | --- |
| COc1ccc2c(Cc3c(F)cccc3F)c3n(c(=O)c2c1OC)CCc1cc2c(cc1-3)OCO2 [Example 3, 13-(2,6-difluorobenzyl)-9,10-dimethoxy-5H-[1,3]dioxolo[4,5-g]isoquinolino[3,2-a]isoquinoline-8(6H)-one] | 84.9 µM | 16.7 µM | 24.6% | 108.8% | remarkably excellent in inhibiting NFAT5 activity | 63.7 ± 2.4% | 10.2 µM | 18.5 ± 5.2% | slightly | 32.8 µM | 47.7 µM | 74.1% | 113% |
| O=C1CC2(CCCC2)CC(=O)N1CCCCN1CCN(c2ncccn2)CC1 [buspirione, reference compound] |  |  |  |  |  | 3.88 ± 0.24% |  | 0.82 ± 0.16% |  |  |  |  |  |
